Measured values taken from ChEMBL document CHEMBL1909046, “DrugMatrix in vitro pharmacology data”.

Assays:
[1] = DRUGMATRIX: Calcium Channel Type L, Phenylalkylamine radioligand binding (ligand: [3H] (-)-Desmethoxyverapamil (D-888)); type: cell membranes, Rattus norvegicus, Wistar, Brain, Membrane; conditions: Not Active = under 50% inhibition at 10 µM
[2] = biological target: T1, Muscarinic acetylcholine receptor M2 (Homo sapiens, UniProt P08172); type: cell membranes, CHO-K1, Membrane; note: in other assays of this panel Not Active means under 50% inhibition at 10 µM
T1 sequence (P08172 whole entry): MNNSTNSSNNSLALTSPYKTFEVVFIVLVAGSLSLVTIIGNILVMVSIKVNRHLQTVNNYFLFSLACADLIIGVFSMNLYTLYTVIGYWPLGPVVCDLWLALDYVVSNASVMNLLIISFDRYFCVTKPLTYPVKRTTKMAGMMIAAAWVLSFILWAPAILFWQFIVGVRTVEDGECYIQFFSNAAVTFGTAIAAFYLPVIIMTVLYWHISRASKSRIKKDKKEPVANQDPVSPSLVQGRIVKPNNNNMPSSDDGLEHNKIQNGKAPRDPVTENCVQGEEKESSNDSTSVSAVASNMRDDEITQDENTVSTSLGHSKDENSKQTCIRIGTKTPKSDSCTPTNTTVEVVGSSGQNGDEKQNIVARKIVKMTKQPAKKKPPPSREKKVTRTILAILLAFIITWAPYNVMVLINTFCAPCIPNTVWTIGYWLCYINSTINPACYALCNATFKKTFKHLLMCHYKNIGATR

[3] = biological target: 5-hydroxytryptamine receptor 1B (Rattus norvegicus, UniProt P28564); type: cell membranes, Wistar, Cerebral cortex, Membrane; note: in other assays of this panel Not Active means under 50% inhibition at 10 µM
Chain of 5-hydroxytryptamine receptor 1B (P28564 whole entry): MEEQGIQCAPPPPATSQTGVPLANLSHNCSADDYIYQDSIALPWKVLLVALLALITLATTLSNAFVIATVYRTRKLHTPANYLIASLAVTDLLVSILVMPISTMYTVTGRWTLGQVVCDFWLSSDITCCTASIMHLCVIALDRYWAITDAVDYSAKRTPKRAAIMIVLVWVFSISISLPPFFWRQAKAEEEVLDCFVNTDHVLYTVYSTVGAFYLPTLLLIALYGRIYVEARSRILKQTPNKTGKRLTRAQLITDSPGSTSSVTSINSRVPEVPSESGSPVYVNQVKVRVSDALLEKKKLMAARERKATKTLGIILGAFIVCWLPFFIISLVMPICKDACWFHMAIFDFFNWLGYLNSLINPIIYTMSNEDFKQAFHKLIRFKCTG

Acetylcholinesterase = Acetylcholinesterase (Homo sapiens, UniProt P22303); assay: DRUGMATRIX: Acetylcholinesterase enzyme inhibition (substrate: acetylthiocholine); type: cell-based, HEK293; conditions: hek293; Not Active = under 50% inhibition at 10 µM
Chain of Acetylcholinesterase (P22303 whole entry): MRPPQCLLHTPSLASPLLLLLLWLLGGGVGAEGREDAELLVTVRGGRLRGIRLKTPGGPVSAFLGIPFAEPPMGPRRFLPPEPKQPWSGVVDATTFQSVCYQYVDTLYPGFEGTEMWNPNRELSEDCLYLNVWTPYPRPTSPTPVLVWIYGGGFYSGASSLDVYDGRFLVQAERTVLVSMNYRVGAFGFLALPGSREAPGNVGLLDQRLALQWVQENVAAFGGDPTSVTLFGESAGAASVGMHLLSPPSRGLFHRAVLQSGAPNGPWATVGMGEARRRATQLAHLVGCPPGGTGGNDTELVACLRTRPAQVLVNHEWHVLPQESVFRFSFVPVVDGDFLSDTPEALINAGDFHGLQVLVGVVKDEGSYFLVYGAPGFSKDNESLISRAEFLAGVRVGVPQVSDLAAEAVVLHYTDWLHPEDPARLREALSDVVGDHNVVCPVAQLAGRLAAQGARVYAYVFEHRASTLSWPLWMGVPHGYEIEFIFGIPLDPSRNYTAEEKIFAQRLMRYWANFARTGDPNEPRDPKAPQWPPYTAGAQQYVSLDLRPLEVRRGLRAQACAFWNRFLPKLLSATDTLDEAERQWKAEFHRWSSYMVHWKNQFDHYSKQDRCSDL

[4] = biological target: Protein phosphatase 3 catalytic subunit alpha (Homo sapiens, UniProt Q08209); parameters: species or system Escherichia coli;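 note: inhibition of calcineurin (PP2B) enzyme activity, measured with DiFMUP as the substrate; in other assays of this panel Not Active means under 50% inhibition at 10 µM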

| Molecule | IC50 [1] | Ki [1] | IC50 ([2]; cho-k1) | IC50 [3] | IC50 (Acetylcholinesterase) | IC50 [4] | Ki ([2]; cho-k1) | Ki [3] | Ki (Acetylcholinesterase) | Ki [4] | IC50 ([1]; read-out: IC50) | Ki ([1]; read-out: Ki) | IC50 ([3]; read-out: IC50) | Ki ([3]; read-out: Ki) | IC50 ([2]; read-out: IC50) | Ki ([2]; read-out: Ki) |
| --- | --- | --- | --- | --- | --- | --- | --- | --- | --- | --- | --- | --- | --- | --- | --- | --- |
| CO[C@H]1O[C@@H]2O[C@@]3(C)CC[C@H]4[C@H](C)CC[C@@H]([C@H]1C)[C@@]24OO3 | Not Active | Not Active | Not Active | Not Active | Not Active | Not Active |  |  |  |  |  |  |  |  |  |  |
| C[C@@H]1[C@H](O)[C@@H](C)/C=C/C=C/C=C/C=C/C=C/C=C/C=C/[C@H](O[C@@H]2O[C@H](C)[C@@H](O)[C@H](N)[C@@H]2O)C[C@@H]2O[C@](O)(C[C@@H](O)C[C@@H](O)[C@H](O)CC[C@@H](O)C[C@@H](O)CC(=O)O[C@H]1C)C[C@H](O)[C@H]2C(=O)O [AMPHOTERICIN B] | Not Active | Not Active | Not Active | Not Active | Not Active | Not Active |  |  |  |  |  |  |  |  |  |  |
| Oc1ncnc2[nH]ncc12 [ALLOPURINOL] | Not Active | Not Active | Not Active | Not Active | Not Active | Not Active |  |  |  |  |  |  |  |  |  |  |
| COc1cc([C@@H]2c3cc4c(cc3[C@H](O)[C@H]3COC(=O)[C@H]23)OCO4)cc(OC)c1OC [PODOFILOX] | Not Active | Not Active | Not Active | Not Active | Not Active | Not Active |  |  |  |  |  |  |  |  |  |  |
| NC(=O)CN1CCCC1=O | Not Active | Not Active | Not Active | Not Active | Not Active | Not Active |  |  |  |  |  |  |  |  |  |  |
| POVIDONE | Not Active | Not Active | Not Active | Not Active | Not Active | Not Active | Not Active | Not Active | Not Active | Not Active |  |  |  |  |  |  |
| Cc1c(N)nc([C@H](CC(N)=O)NC[C@H](N)C(N)=O)nc1C(=O)N[C@H](C(=O)N[C@H](C)[C@@H](O)[C@H](C)C(=O)N[C@H](C(=O)NCCc1nc(-c2nc(C(=O)NCCC[S+](C)C)cs2)cs1)[C@@H](C)O)[C@@H](O[C@@H]1O[C@@H](CO)[C@@H](O)[C@H](O)[C@@H]1O[C@H]1O[C@H](CO)[C@@H](O)[C@H](OC(N)=O)[C@@H]1O)c1c[nH]cn1.[Br-] [BLEOMYCIN A2] | Not Active | Not Active | Not Active | Not Active | Not Active | Not Active |  |  |  |  |  |  |  |  |  |  |
| CN(Cc1cc(Br)cc(Br)c1N)C1CCCCC1 [BROMHEXINE] | Not Active | Not Active | Not Active | Not Active | Not Active | Not Active |  |  |  |  |  |  |  |  |  |  |
| Nc1ccc(Cc2ccc(N)cc2)cc1 | Not Active | Not Active | Not Active | Not Active | Not Active | Not Active |  |  |  |  |  |  |  |  |  |  |
| C[C@]12CC[C@@H](O)C[C@@H]1CC[C@@H]1[C@@H]2CC[C@]2(C)C(=O)CC[C@@H]12 [ANDROSTERONE] | Not Active | Not Active | Not Active | Not Active | Not Active | Not Active |  |  |  |  |  |  |  |  |  |  |
| O=C(O)c1ccccc1 [BENZOIC ACID] | Not Active | Not Active | Not Active | Not Active | Not Active | Not Active |  |  |  |  |  |  |  |  |  |  |
| CC(=O)Nc1ccc2c(c1)Cc1ccccc1-2 [2-ACETYLAMINOFLUORENE] | Not Active | Not Active | Not Active | Not Active | Not Active | Not Active |  |  |  |  |  |  |  |  |  |  |
| C[C@H](C(=O)O)c1ccc2oc(-c3ccc(F)cc3)nc2c1 [FLUNOXAPROFEN] | Not Active | Not Active | Not Active | Not Active | Not Active | Not Active |  |  |  |  |  |  |  |  |  |  |
| C[C@H]1C[C@H]2[C@@H]3CCC4=CC(=O)C=C[C@]4(C)[C@@]3(F)[C@@H](O)C[C@]2(C)[C@@]1(O)C(=O)CO [BETAMETHASONE] | Not Active | Not Active | Not Active | Not Active | Not Active | Not Active |  |  |  |  |  |  |  |  |  |  |
| CN(CCOc1ccc(C[C@H](Nc2ccccc2C(=O)c2ccccc2)C(=O)O)cc1)c1ccccn1 | Not Active | Not Active | Not Active | Not Active | Not Active | Not Active |  |  |  |  |  |  |  |  |  |  |
| NS(=O)(=O)c1cc(C(=O)O)c(NCc2ccco2)cc1Cl [FUROSEMIDE] | Not Active | Not Active | Not Active | Not Active | Not Active | Not Active |  |  |  |  |  |  |  |  |  |  |
| CCN1CCN(c2cc3c(cc2F)c(=O)c(C(=O)O)cn3C2CC2)CC1 [ENROFLOXACIN] | Not Active | Not Active | Not Active | Not Active | Not Active | Not Active |  |  |  |  |  |  |  |  |  |  |
| C[N+](C)(C)CCOP(=O)([O-])OC[C@H](O)CO | Not Active | Not Active | Not Active | Not Active | Not Active | Not Active |  |  |  |  |  |  |  |  |  |  |
| O=C(Nc1ccc(Cl)c(Cl)c1)c1cc(Cl)cc(Cl)c1O [3,3',4',5-TETRACHLOROSALICYLANILIDE] | Not Active | Not Active | Not Active | Not Active | Not Active | Not Active |  |  |  |  |  |  |  |  |  |  |
| O=C(O)COC(=O)Cc1ccccc1Nc1c(Cl)cccc1Cl [ACECLOFENAC] | Not Active | Not Active | Not Active | Not Active | Not Active | Not Active |  |  |  |  |  |  |  |  |  |  |
| O=c1[nH]c2ccccc2c2ccccc12 | Not Active | Not Active | Not Active | Not Active | Not Active | Not Active |  |  |  |  |  |  |  |  |  |  |
| C=CCN1CC[C@]23c4c5ccc(O)c4O[C@H]2/C(=N/N=C2\CC[C@@]4(O)[C@H]6Cc7ccc(O)c8c7[C@@]4(CCN6CC=C)[C@H]2O8)CC[C@@]3(O)[C@H]1C5 [NALOXONAZINE] | Not Active | Not Active | Not Active | Not Active | Not Active | Not Active |  |  |  |  |  |  |  |  |  |  |
| ClC1=C(Cl)[C@]2(Cl)[C@@H]3[C@@H]4C[C@@H]([C@H]5O[C@@H]45)[C@@H]3[C@@]1(Cl)C2(Cl)Cl [DIELDRIN] | Not Active | Not Active | Not Active | Not Active | Not Active | Not Active |  |  |  |  |  |  |  |  |  |  |
| COPPER(II) OXIDE | Not Active | Not Active | Not Active | Not Active | Not Active | Not Active | Not Active | Not Active | Not Active | Not Active |  |  |  |  |  |  |
| CCO [ALCOHOL] | Not Active | Not Active | Not Active | Not Active | Not Active | Not Active |  |  |  |  |  |  |  |  |  |  |
| CC(N)Cc1c[nH]c2ccc(OCc3cccs3)cc12 (stereo not drawn) [BW-723C86] |  |  | Not Active |  | Not Active | Not Active |  |  |  |  | 4.34 µM | 4.22 µM | 421 nM | 400 nM |  |  |
| CCN(CCO)CCCC(C)Nc1ccnc2cc(Cl)ccc12 (stereo not drawn) [HYDROXYCHLOROQUINE] | Not Active | Not Active |  | Not Active | Not Active | Not Active |  |  |  |  |  |  |  |  | 2950 nM | 1050 nM |
| c1ccc2sc(SSc3nc4ccccc4s3)nc2c1 [BENZOTHIAZYL DISULFIDE] | Not Active | Not Active | Not Active | Not Active | Not Active | Not Active |  |  |  |  |  |  |  |  |  |  |
